Measured values as given in patent EP0908457B1, “3-(1,2-benzisothiazol- and isoxazol-5-Y1)-2,4(1H,3H)-pyrimidinedione or thione and 3-(1,2-benzisothiazol- and isoxazol-5-y1)-4(3H)-pyrimidinone or thione herbicidal agents” (BASF AKTIENGESELLSCHAFT, priority 1997, dated 1999).

How the values were obtained:
[1] = system: Echinochloa oryzoides (Ard.) Fritsch.; experiment: Preemergence weed control under flooded paddy conditions, ECHORC (Watergrass (Calif.)); type: in vivo; conditions: flooded paddy; for ECHORC: herbicidal effect rating 0-9, three to four weeks after treatment; on herbicidal effect rating, ECHORC: meaning of each grade not given here
[2] = system: Cyperus iria; experiment: Preemergence weed control under flooded paddy conditions, CYPIR (Rice Flatsedge); type: in vivo; conditions: flooded paddy; for CYPIR: herbicidal effect rating 0-9, three to four weeks after treatment; on herbicidal effect rating, CYPIR: meaning of each grade not given here
[3] = system: Cyperus serotinus, Rottb.; experiment: Preemergence weed control under flooded paddy conditions, CYPSE (Flatsedge); type: in vivo; on herbicidal effect rating, CYPSE: meaning of each grade not given here
[4] = system: Monochoria vaginalis, Presl.; experiment: Preemergence weed control under flooded paddy conditions, MOOVA (Monochoria); type: in vivo; conditions: flooded paddy; for MOOVA: herbicidal effect rating 0-9, three to four weeks after treatment; on herbicidal effect rating, MOOVA: meaning of each grade not given here
[5] = system: Sagittaria pygmaea, L.; experiment: Preemergence weed control under flooded paddy conditions, SAGPY (Arrowhead (Pygmaea)); type: in vivo; conditions: flooded paddy; for SAGPY: herbicidal effect rating 0-9, three to four weeks after treatment; on herbicidal effect rating, SAGPY: meaning of each grade not given here
[6] = system: Oryza sativa, (L.) Tebonnet; experiment: Rice tolerance to post-transplant applications under flooded paddy conditions (Example 187), ORYSAT (Rice, Tebonnet); conditions: for ORYSAT: herbicidal effect rating 0-9, three to four weeks after treatment; on herbicidal effect rating ORYSAT: meaning of each grade not given here
[7] = Rate 0.0320 kg/ha, preemergence, rated 3-4 weeks after treatment
[8] = Rate 0.0620 kg/ha, preemergence, rated 3-4 weeks after treatment
[9] = Rate 0.1250 kg/ha, preemergence, rated 3-4 weeks after treatment
[10] = Rate 0.2500 kg/ha, preemergence, rated 3-4 weeks after treatment
[11] = 0.0313 kg/ha, preemergence weeds, rated three to four weeks after treatment
[12] = 0.0625 kg/ha, preemergence weeds, rated three to four weeks after treatment
[13] = 0.1250 kg/ha, preemergence weeds, rated three to four weeks after treatment
[14] = 0.2500 kg/ha, preemergence weeds, rated three to four weeks after treatment
[15] = 0.0313 kg/ha, rated three to four weeks after treatment
[16] = 0.0625 kg/ha, rated three to four weeks after treatment
[17] = 0.1250 kg/ha, rated three to four weeks after treatment
[18] = 0.2500 kg/ha, rated three to four weeks after treatment
[19] = 0.0320 kg/ha, preemergence weeds
[20] = 0.0620 kg/ha, preemergence weeds
[21] = 0.1250 kg/ha, preemergence weeds
[22] = 0.2500 kg/ha, preemergence weeds
[23] = 0.0313 kg/ha, preemergence, rated three to four weeks after treatment
[24] = 0.0625 kg/ha, preemergence, rated three to four weeks after treatment
[25] = 0.1250 kg/ha, preemergence, rated three to four weeks after treatment
[26] = 0.2500 kg/ha, preemergence, rated three to four weeks after treatment
[27] = Rate 0.0320 kg/ha, preemergence, rated three to four weeks after treatment
[28] = Rate 0.0620 kg/ha, preemergence, rated three to four weeks after treatment
[29] = Rate 0.1250 kg/ha, preemergence, rated three to four weeks after treatment
[30] = Rate 0.2500 kg/ha, preemergence, rated three to four weeks after treatment

Cc1nsc2ccc(-n3c(=O)cc(C(F)(F)F)n(CCF)c3=O)cc12 [Example 516, 2,4(1H,3H)-Pyrimidinedione, 1-(2-fluoroethyl)-3-(3-methyl-1,2-benzisothiazol-5-yl)-6-(trifluoromethyl)-]
herbicidal effect rating, ECHORC [1, 7]: 0.0
herbicidal effect rating, ECHORC [1, 8]: 0.0
herbicidal effect rating, ECHORC [1, 9]: 0.0
herbicidal effect rating, ECHORC [1, 10]: 0.0
herbicidal effect rating, CYPIR [2, 7]: 0.0
herbicidal effect rating, CYPIR [2, 8]: 0.0
herbicidal effect rating, CYPIR [2, 9]: 0.0
herbicidal effect rating, CYPIR [2, 10]: 2.0
herbicidal effect rating, CYPSE [3, 7]: 0.0
herbicidal effect rating, CYPSE [3, 8]: 0.0
herbicidal effect rating, CYPSE [3, 9]: 0.0
herbicidal effect rating, CYPSE [3, 10]: 0.0
herbicidal effect rating, MOOVA [4, 7]: 4.0
herbicidal effect rating, MOOVA [4, 8]: 6.0
herbicidal effect rating, MOOVA [4, 9]: 8.0
herbicidal effect rating, MOOVA [4, 10]: 9.0
herbicidal effect rating, SAGPY [5, 7]: 0.0
herbicidal effect rating, SAGPY [5, 8]: 0.0
herbicidal effect rating, SAGPY [5, 9]: 0.0
herbicidal effect rating, SAGPY [5, 10]: 0.0
herbicidal effect rating ORYSAT ([6]; Rate 0.0320 kg/ha, rated 3-4 weeks after treatment): 0.0
herbicidal effect rating ORYSAT ([6]; Rate 0.0620 kg/ha, rated 3-4 weeks after treatment): 1.0
herbicidal effect rating ORYSAT ([6]; Rate 0.1250 kg/ha, rated 3-4 weeks after treatment): 2.0
herbicidal effect rating ORYSAT ([6]; Rate 0.2500 kg/ha, rated 3-4 weeks after treatment): 3.0

Cn1c(C(F)(F)F)cc(=O)n(-c2ccc3snc(N4CCOCC4)c3c2)c1=O [Example 116, 1-Methyl-3-(3-morpholino-1,2-benzisothiazol-5-yl)-6-(trifluoromethyl)-2,4(1H,3H)-pyrimidinedione]
herbicidal effect rating, ECHORC [1, 11]: 0.0
herbicidal effect rating, ECHORC [1, 12]: 0.0
herbicidal effect rating, ECHORC [1, 13]: 0.0
herbicidal effect rating, ECHORC [1, 14]: 0.0
herbicidal effect rating, CYPIR [2, 11]: 0.0
herbicidal effect rating, CYPIR [2, 12]: 0.0
herbicidal effect rating, CYPIR [2, 13]: 0.0
herbicidal effect rating, CYPIR [2, 14]: 0.0
herbicidal effect rating, CYPSE [3, 11]: 0.0
herbicidal effect rating, CYPSE [3, 12]: 0.0
herbicidal effect rating, CYPSE [3, 13]: 0.0
herbicidal effect rating, CYPSE [3, 14]: 0.0
herbicidal effect rating, MOOVA [4, 11]: 0.0
herbicidal effect rating, MOOVA [4, 12]: 2.0
herbicidal effect rating, MOOVA [4, 13]: 8.0
herbicidal effect rating, MOOVA [4, 14]: 8.0
herbicidal effect rating, SAGPY [5, 11]: 0.0
herbicidal effect rating, SAGPY [5, 12]: 0.0
herbicidal effect rating, SAGPY [5, 13]: 0.0
herbicidal effect rating, SAGPY [5, 14]: 0.0
herbicidal effect rating, ORYSAT (rice tolerance) [6, 15]: 0.0
herbicidal effect rating, ORYSAT (rice tolerance) [6, 16]: 0.0
herbicidal effect rating, ORYSAT (rice tolerance) [6, 17]: 0.0
herbicidal effect rating, ORYSAT (rice tolerance) [6, 18]: 0.0

C=CCOCc1nsc2ccc(-n3c(=O)cc(C(F)(F)F)n(C)c3=O)cc12 [Example 196, 3-{3-[(Allyloxy)methyl]-1,2-benzisothiazol-5-yl}-1-methyl-6-(trifluoromethyl)-2,4(1H,3H)-pyrimidinedione]
herbicidal effect rating, ECHORC [1, 11]: 0.0
herbicidal effect rating, ECHORC [1, 12]: 2.0
herbicidal effect rating, ECHORC [1, 13]: 4.0
herbicidal effect rating, ECHORC [1, 14]: 4.0
herbicidal effect rating, CYPIR [2, 11]: 0.0
herbicidal effect rating, CYPIR [2, 12]: 0.0
herbicidal effect rating, CYPIR [2, 13]: 1.0
herbicidal effect rating, CYPIR [2, 14]: 4.0
herbicidal effect rating, CYPSE [3, 11]: 2.0
herbicidal effect rating, CYPSE [3, 12]: 4.0
herbicidal effect rating, CYPSE [3, 13]: 6.0
herbicidal effect rating, CYPSE [3, 14]: 9.0
herbicidal effect rating, MOOVA [4, 11]: 9.0
herbicidal effect rating, MOOVA [4, 12]: 9.0
herbicidal effect rating, MOOVA [4, 13]: 9.0
herbicidal effect rating, MOOVA [4, 14]: 9.0
herbicidal effect rating, SAGPY [5, 11]: 0.0
herbicidal effect rating, SAGPY [5, 12]: 0.0
herbicidal effect rating, SAGPY [5, 13]: 0.0
herbicidal effect rating, SAGPY [5, 14]: 0.0
herbicidal effect rating, ORYSAT (rice tolerance) [6, 15]: 4.0
herbicidal effect rating, ORYSAT (rice tolerance) [6, 16]: 6.0
herbicidal effect rating, ORYSAT (rice tolerance) [6, 17]: 8.0
herbicidal effect rating, ORYSAT (rice tolerance) [6, 18]: 8.0

Cn1c(C(F)(F)F)cc(=O)n(-c2ccc3snc(C(=O)SCc4ccccc4)c3c2)c1=O [Example 421, 1,2-Benzisothiazole-3-thiocarboxylic acid, 5-[3,6-dihydro-3-methyl-2,6-dioxo-4-(trifluoromethyl)-1(2H)-pyrimidinyl]-, S-benzyl ester]
ECHORC [1, 19]: 5.0
ECHORC [1, 20]: 5.0
ECHORC [1, 21]: 7.0
ECHORC [1, 22]: 9.0
CYPIR [2, 19]: 2.0
CYPIR [2, 20]: 6.0
CYPIR [2, 21]: 8.0
CYPIR [2, 22]: 9.0
CYPSE ([3]; 0.2500 kg/ha, preemergence weeds, herbicidal effect rating 0-9, three to four weeks after treatment): 4.0
MOOVA [4, 19]: 5.0
MOOVA [4, 20]: 6.0
MOOVA [4, 21]: 7.0
MOOVA [4, 22]: 9.0
SAGPY [5, 19]: 0.0
SAGPY [5, 20]: 0.0
SAGPY [5, 21]: 0.0
SAGPY [5, 22]: 2.0
ORYSAT ([6]; 0.0320 kg/ha): 0.0
ORYSAT ([6]; 0.0620 kg/ha): 0.0
ORYSAT ([6]; 0.1250 kg/ha): 0.0
ORYSAT ([6]; 0.2500 kg/ha): 2.0

Cc1ccc(OCC(=O)OCC#Cc2ccccc2)c(-c2nsc3ccc(-n4c(=O)cc(C(F)(F)F)n(C)c4=O)cc23)c1 [Example 73, 3-Phenyl-2-propynyl {{2-{5-[3,6-dihydro-3-methyl-2,6-dioxo-4-(trifluoromethyl)-1(2H)-pyrimidinyl]-1,2-benzisothiazol-3-yl}-p-tolyl}oxy}acetate]
herbicidal effect rating, ECHORC [1, 23]: 8.0
herbicidal effect rating, ECHORC [1, 24]: 6.5
herbicidal effect rating, ECHORC [1, 25]: 9.0
herbicidal effect rating, ECHORC [1, 26]: 9.0
herbicidal effect rating, CYPIR [2, 23]: 2.0
herbicidal effect rating, CYPIR [2, 24]: 6.0
herbicidal effect rating, CYPIR [2, 25]: 8.0
herbicidal effect rating, CYPIR [2, 26]: 8.0
herbicidal effect rating, CYPSE [3, 23]: 0.0
herbicidal effect rating, CYPSE [3, 24]: 0.0
herbicidal effect rating, CYPSE [3, 25]: 2.0
herbicidal effect rating, CYPSE [3, 26]: 9.0
herbicidal effect rating, MOOVA [4, 23]: 9.0
herbicidal effect rating, MOOVA [4, 24]: 9.0
herbicidal effect rating, MOOVA [4, 25]: 9.0
herbicidal effect rating, MOOVA [4, 26]: 9.0
herbicidal effect rating, SAGPY [5, 23]: 0.0
herbicidal effect rating, SAGPY [5, 24]: 0.0
herbicidal effect rating, SAGPY [5, 25]: 0.0
herbicidal effect rating, SAGPY [5, 26]: 2.0
herbicidal effect rating, ORYSAT (rice tolerance) [6, 15]: 2.5
herbicidal effect rating, ORYSAT (rice tolerance) [6, 16]: 3.0
herbicidal effect rating, ORYSAT (rice tolerance) [6, 17]: 4.0
herbicidal effect rating, ORYSAT (rice tolerance) [6, 18]: 6.0

Cc1ccc(S(=O)(=O)NC(=O)c2nsc3ccc(-n4c(=O)cc(C(F)(F)F)n(C)c4=O)cc23)cc1 [Example 353, 1,2-Benzisothiazole-3-carboxamide, 5-[3,6-dihydro-3-methyl-2,6-dioxo-4-(trifluoromethyl)-1(2H)-pyrimidinyl]-N-(p-tolylsulfonyl)-]
herbicidal effect rating, ECHORC [1, 27]: 0.0
herbicidal effect rating, ECHORC [1, 28]: 2.0
herbicidal effect rating, ECHORC [1, 29]: 2.5
herbicidal effect rating, ECHORC [1, 30]: 3.0
herbicidal effect rating, CYPIR [2, 27]: 0.0
herbicidal effect rating, CYPIR [2, 28]: 0.0
herbicidal effect rating, CYPIR [2, 29]: 1.0
herbicidal effect rating, CYPIR [2, 30]: 3.0
herbicidal effect rating, CYPSE [3, 27]: 0.0
herbicidal effect rating, CYPSE [3, 28]: 0.0
herbicidal effect rating, CYPSE [3, 29]: 1.5
herbicidal effect rating, CYPSE [3, 30]: 2.5
herbicidal effect rating, MOOVA [4, 27]: 3.5
herbicidal effect rating, MOOVA [4, 28]: 6.5
herbicidal effect rating, MOOVA [4, 29]: 8.0
herbicidal effect rating, MOOVA [4, 30]: 8.0
herbicidal effect rating, SAGPY [5, 27]: 0.0
herbicidal effect rating, SAGPY [5, 28]: 0.0
herbicidal effect rating, SAGPY [5, 29]: 0.0
herbicidal effect rating, SAGPY [5, 30]: 0.0
herbicidal effect rating ORYSAT ([6]; Rate 0.0320 kg/ha, rated three to four weeks after treatment): 2.5
herbicidal effect rating ORYSAT ([6]; Rate 0.0620 kg/ha, rated three to four weeks after treatment): 3.0
herbicidal effect rating ORYSAT ([6]; Rate 0.1250 kg/ha, rated three to four weeks after treatment): 3.5
herbicidal effect rating ORYSAT ([6]; Rate 0.2500 kg/ha, rated three to four weeks after treatment): 4.0
